Reference: patent US9938273B2 (Plexxikon Inc., priority 2015, dated 2018)

How the values were obtained:
[1] = tested on: MOLM-14 D835Y cells, FLT3 ITD and FLT3 D835Y; test: Cell proliferation assay (CellTiter-Glo), MOLM-14 D835Y; type: cell-based; settings: Homo sapiens, 72 h, 3d-Growth, GMean
Method in brief: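 Three-day growth at 37 °C, 5% CO2 under compound (1 μM top final, 1:3 dilutions, eight points, 0.2% DMSO), read as ATP luminescence by CellTiter-Glo for IC50. Cells: MOLM-14 with FLT3 ITD plus D835Y or F691L, and IL-3-deprived Ba/F3 transfected with FLT3 ITD/D835Y, 1×10^4 per well.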

[2] = target: T1, FLT3-D835Y (Homo sapiens, UniProt P36888, D835Y); test: AlphaScreen kinase assay with recombinant enzyme, FLT3-D835Y; type: biochemical; settings: 8pt, GMean
T1 construct: purchased Invitrogen PV3967
T1 sequence (P36888 27-993 D835Y): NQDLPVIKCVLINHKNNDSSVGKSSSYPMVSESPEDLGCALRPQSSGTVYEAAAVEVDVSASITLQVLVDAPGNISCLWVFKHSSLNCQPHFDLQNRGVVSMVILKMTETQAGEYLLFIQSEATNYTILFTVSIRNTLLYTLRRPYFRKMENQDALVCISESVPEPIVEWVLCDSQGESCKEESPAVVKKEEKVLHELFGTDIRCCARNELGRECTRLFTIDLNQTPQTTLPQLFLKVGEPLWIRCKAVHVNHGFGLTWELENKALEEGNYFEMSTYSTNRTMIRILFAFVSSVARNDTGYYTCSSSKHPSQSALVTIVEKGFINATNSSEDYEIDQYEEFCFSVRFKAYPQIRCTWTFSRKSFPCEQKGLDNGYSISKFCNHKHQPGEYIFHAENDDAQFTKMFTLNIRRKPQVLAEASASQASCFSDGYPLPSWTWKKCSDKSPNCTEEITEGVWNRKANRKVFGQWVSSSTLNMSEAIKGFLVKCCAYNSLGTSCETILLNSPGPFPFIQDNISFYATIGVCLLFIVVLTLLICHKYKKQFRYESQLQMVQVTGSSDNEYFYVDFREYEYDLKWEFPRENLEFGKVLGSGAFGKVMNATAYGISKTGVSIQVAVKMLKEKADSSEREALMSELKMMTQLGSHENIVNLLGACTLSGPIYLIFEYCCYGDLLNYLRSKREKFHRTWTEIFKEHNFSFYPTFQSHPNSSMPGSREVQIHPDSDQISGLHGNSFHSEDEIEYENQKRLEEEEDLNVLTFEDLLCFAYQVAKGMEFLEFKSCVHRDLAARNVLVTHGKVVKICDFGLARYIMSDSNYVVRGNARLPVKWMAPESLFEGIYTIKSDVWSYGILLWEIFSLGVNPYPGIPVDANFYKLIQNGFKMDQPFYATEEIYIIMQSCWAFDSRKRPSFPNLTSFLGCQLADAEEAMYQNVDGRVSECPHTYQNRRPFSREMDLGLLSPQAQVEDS
Method in brief: (§1)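 Read-out: AlphaScreen proximity signal at 580 nm (680 nm excitation), lost as peptide tyrosine phosphorylation falls. Substrate Biotin-GG(EEEEY)10EE at 30 nM; IC50 runs at 10 μM (FLT3 mutants) or 100 μM (c-KIT) final. Donor beads 20 min, then acceptor beads 60 min, room temperature.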

[3] = target: T2, c-KIT (Homo sapiens, UniProt P10721); test: AlphaScreen kinase assay with recombinant enzyme, c-KIT; type: biochemical; settings: 100ATP, 8pt, GMean
T2 construct: purchased Millipore 14-559K
Method in brief: as §1

T2 sequence (P10721 26-976): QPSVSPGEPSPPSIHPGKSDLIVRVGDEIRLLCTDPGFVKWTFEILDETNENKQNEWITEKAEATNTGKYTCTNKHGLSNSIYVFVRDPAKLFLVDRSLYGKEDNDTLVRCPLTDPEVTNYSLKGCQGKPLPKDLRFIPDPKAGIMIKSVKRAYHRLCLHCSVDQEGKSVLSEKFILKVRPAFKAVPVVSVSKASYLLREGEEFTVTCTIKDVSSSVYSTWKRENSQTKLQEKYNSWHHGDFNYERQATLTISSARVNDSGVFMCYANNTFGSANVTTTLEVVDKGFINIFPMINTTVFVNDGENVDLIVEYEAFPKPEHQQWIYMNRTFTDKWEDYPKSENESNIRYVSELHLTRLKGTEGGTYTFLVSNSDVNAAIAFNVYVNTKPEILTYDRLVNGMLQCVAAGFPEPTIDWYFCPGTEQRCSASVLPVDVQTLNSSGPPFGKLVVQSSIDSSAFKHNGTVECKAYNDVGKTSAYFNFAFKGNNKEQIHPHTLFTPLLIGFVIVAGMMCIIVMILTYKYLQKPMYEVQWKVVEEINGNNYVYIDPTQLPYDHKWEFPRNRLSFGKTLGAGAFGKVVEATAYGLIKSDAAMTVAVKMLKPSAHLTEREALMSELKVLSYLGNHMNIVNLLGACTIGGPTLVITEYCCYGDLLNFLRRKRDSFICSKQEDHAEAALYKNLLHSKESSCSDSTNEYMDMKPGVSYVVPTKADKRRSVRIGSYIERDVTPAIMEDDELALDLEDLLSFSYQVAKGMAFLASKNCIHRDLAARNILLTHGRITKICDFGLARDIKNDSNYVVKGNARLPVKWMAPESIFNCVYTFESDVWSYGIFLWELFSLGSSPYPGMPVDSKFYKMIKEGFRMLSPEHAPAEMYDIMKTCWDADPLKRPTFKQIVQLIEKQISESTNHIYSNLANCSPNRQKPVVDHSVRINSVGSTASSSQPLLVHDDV

Row | SMILES | IC50 [1] [µM] | IC50 [2] [µM] | IC50 [3] [µM]
1 | NC1CCN(C(=O)c2n[nH]c3ccc(-c4cnc5[nH]c(-c6ccccc6)cc5c4)cc23)CC1 [Compound P-0012, (4-amino-1-piperidyl)-[5-(2-phenyl-1H-pyrrolo[2,3-b]pyridin-5-yl)-1H-indazol-3-yl]methanone] | 0.0001 to 10 | 0.0001 to 10 | 0.0001 to 10
2 | NC1CCN(C(=O)c2cccc(-c3cnc4[nH]c(-c5ccccc5)cc4c3)n2)CC1 [Compound P-0013, (4-amino-1-piperidyl)-[6-(2-phenyl-1H-pyrrolo[2,3-b]pyridin-5-yl)-2-pyridyl]methanone] | 0.0001 to 10 | 0.0001 to 10 | 0.0001 to 10
3 | NC1CCC(NC(=O)c2cccc(-c3cnc4[nH]c(-c5ccccc5)cc4c3)n2)CC1 (stereo not drawn) [Compound P-0018, N-(4-aminocyclohexyl)-6-(2-phenyl-1H-pyrrolo[2,3-b]pyridin-5-yl)pyridine-2-carboxamide] | 0.0001 to 10 | 0.0001 to 10 | 0.0001 to 10
4 | CN1CCC(NC(=O)c2n[nH]c3ccc(-c4cnc5[nH]c(-c6ccccc6)cc5c4)cc23)CC1 [Compound P-0022, N-(1-methyl-4-piperidyl)-5-(2-phenyl-1H-pyrrolo[2,3-b]pyridin-5-yl)-1H-indazole-3-carboxamide] |  | 0.0001 to 10 | 0.0001 to 10
5 | O=C(c1cccc(-c2cnc3[nH]c(-c4ccccc4)cc3c2)n1)N1CCC(CO)CC1 [Compound P-0023, [4-(hydroxymethyl)-1-piperidyl]-[6-(2-phenyl-1H-pyrrolo[2,3-b]pyridin-5-yl)-2-pyridyl]methanone] |  | 0.0001 to 10 | 50 to 100
6 | CCOC(=O)C1CCN(C(=O)c2cccc(-c3cnc4[nH]c(-c5ccccc5)cc4c3)n2)CC1 [Compound P-0025, ethyl 1-[6-(2-phenyl-1H-pyrrolo[2,3-b]pyridin-5-yl)pyridine-2-carbonyl]piperidine-4-carboxylate] |  | 0.0001 to 10 | 0.0001 to 10
7 | NCC1CCN(C(=O)c2cccc(-c3cnc4[nH]c(-c5ccccc5)cc4c3)n2)CC1 [Compound P-0026, [4-(aminomethyl)-1-piperidyl]-[6-(2-phenyl-1H-pyrrolo[2,3-b]pyridin-5-yl)-2-pyridyl]methanone] |  | 0.0001 to 10 | 0.0001 to 10
8 | CC1CCN(C(=O)c2n[nH]c3ccc(-c4cnc5[nH]c(-c6ccccc6)cc5c4)cc23)CC1 [Compound P-0027, (4-methyl-1-piperidyl)-[5-(2-phenyl-1H-pyrrolo[2,3-b]pyridin-5-yl)-1H-indazol-3-yl]methanone] |  | 0.0001 to 10 | 50 to 100
9 | CNC1CCN(C(=O)c2n[nH]c3ccc(-c4cnc5[nH]c(-c6ccccc6)cc5c4)cc23)C1 (stereo not drawn) [Compound P-0028, [3-(methylamino)pyrrolidin-1-yl]-[5-(2-phenyl-1H-pyrrolo[2,3-b]pyridin-5-yl)-1H-indazol-3-yl]methanone] |  | 0.0001 to 10 | 0.0001 to 10
10 | CNC1CCN(C(=O)c2cccc(-c3cnc4[nH]c(-c5ccccc5)cc4c3)n2)C1 (stereo not drawn) [Compound P-0040, [3-(methylamino)pyrrolidin-1-yl]-[6-(2-phenyl-1H-pyrrolo[2,3-b]pyridin-5-yl)-2-pyridyl]methanone] | 0.0001 to 10 | 0.0001 to 10 | 0.0001 to 10
11 | CNC1CCN(C(=O)c2cccc(-c3cnc4[nH]c(-c5cn(C)nc5C)cc4c3)n2)C1 (stereo not drawn) [Compound P-0049, [6-[2-(1,3-dimethylpyrazol-4-yl)-1H-pyrrolo[2,3-b]pyridin-5-yl]-2-pyridyl]-[3-(methylamino)pyrrolidin-1-yl]methanone] | 0.0001 to 10 | 0.0001 to 10 | 0.0001 to 10
12 | c1ccc(-c2cc3cc(-c4cccc(OC5CCNCC5)n4)cnc3[nH]2)cc1 [Compound P-0050, 2-phenyl-5-[6-(4-piperidyloxy)-2-pyridyl]-1H-pyrrolo[2,3-b]pyridine] |  | 0.0001 to 10 | 0.0001 to 10
13 | CNC1CN(C(=O)c2cccc(-c3cnc4[nH]c(-c5ccccc5)cc4c3)n2)C1 [Compound P-0052, [3-(methylamino)azetidin-1-yl]-[6-(2-phenyl-1H-pyrrolo[2,3-b]pyridin-5-yl)-2-pyridyl]methanone] | 0.0001 to 10 | 0.0001 to 10 | 0.0001 to 10
14 | N[C@H]1CCN(C(=O)c2ncc(-c3cnc4[nH]c(-c5ccccc5)cc4c3)s2)C1 [Compound P-0054, [(3S)-3-aminopyrrolidin-1-yl]-[5-(2-phenyl-1H-pyrrolo[2,3-b]pyridin-5-yl)thiazol-2-yl]methanone] |  | 0.0001 to 10 | 0.0001 to 10
15 | CNC1CCN(C(=O)c2cccc(-c3cnc4[nH]c(-c5ccc(F)cc5)cc4c3)n2)C1 (stereo not drawn) [Compound P-0055, [6-[2-(4-fluorophenyl)-1H-pyrrolo[2,3-b]pyridin-5-yl]-2-pyridyl]-[3-(methylamino)pyrrolidin-1-yl]methanone] | 0.0001 to 10 | 0.0001 to 10 | 0.0001 to 10
16 | CN[C@@H]1CCN(C(=O)c2cccc(-c3cnc4[nH]c(-c5ccccc5)cc4c3)n2)C1 [Compound P-0058, [(3R)-3-(methylamino)pyrrolidin-1-yl]-[6-(2-phenyl-1H-pyrrolo[2,3-b]pyridin-5-yl)-2-pyridyl]methanone] | 0.0001 to 10 | 0.0001 to 10 | 0.0001 to 10
17 | CC1(C#N)CCN(C(=O)c2cccc(-c3cnc4[nH]c(-c5ccccc5)cc4c3)n2)CC1 [Compound P-0094, 4-methyl-1-[6-(2-phenyl-1H-pyrrolo[2,3-b]pyridin-5-yl)pyridine-2-carbonyl]piperidine-4-carbonitrile] |  | 0.0001 to 10 | 50 to 100
18 | COC1CCN(C(=O)c2cccc(-c3cnc4[nH]c(-c5ccccc5)cc4c3)n2)CC1 [Compound P-0098, (4-methoxy-1-piperidyl)-[6-(2-phenyl-1H-pyrrolo[2,3-b]pyridin-5-yl)-2-pyridyl]methanone] |  | 0.0001 to 10 | 50 to 100
19 | CS(=O)(=O)NC1CCN(C(=O)c2cccc(-c3cnc4[nH]c(-c5ccccc5)cc4c3)n2)C1 (stereo not drawn) [Compound P-0101, N-[1-[6-(2-phenyl-1H-pyrrolo[2,3-b]pyridin-5-yl)pyridine-2-carbonyl]pyrrolidin-3-yl]methanesulfonamide] |  | 0.0001 to 10 | 50 to 100
20 | O=C(c1cccc(-c2cnc3[nH]c(-c4ccccc4)cc3c2)n1)N1CCC(N2CCOCC2)C1 (stereo not drawn) [Compound P-0102, (3-morpholinopyrrolidin-1-yl)-[6-(2-phenyl-1H-pyrrolo[2,3-b]pyridin-5-yl)-2-pyridyl]methanone] |  | 0.0001 to 10 | 50 to 100
21 | O=C(c1cccc(-c2cnc3[nH]c(-c4ccccc4)cc3c2)n1)N1CCC(C(F)(F)F)C1 (stereo not drawn) [Compound P-0103, [6-(2-phenyl-1H-pyrrolo[2,3-b]pyridin-5-yl)-2-pyridyl]-[3-(trifluoromethyl)pyrrolidin-1-yl]methanone] |  | 0.0001 to 10 | 50 to 100
22 | CN(C)C1CCN(C(=O)c2cccc(-c3cnc4[nH]c(-c5ccccc5)cc4c3)n2)C1 (stereo not drawn) [Compound P-0104, [3-(dimethylamino)pyrrolidin-1-yl]-[6-(2-phenyl-1H-pyrrolo[2,3-b]pyridin-5-yl)-2-pyridyl]methanone] |  | 0.0001 to 10 | 0.0001 to 10
23 | N#CC1CCN(C(=O)c2cccc(-c3cnc4[nH]c(-c5ccc(F)cc5)cc4c3)n2)C1 (stereo not drawn) [Compound P-0116, 1-[6-[2-(4-fluorophenyl)-1H-pyrrolo[2,3-b]pyridin-5-yl]pyridine-2-carbonyl]pyrrolidine-3-carbonitrile] |  | 0.0001 to 10 | 0.0001 to 10
